# Assay results as given in the NIST ThermoML archive (doi:10.1016/j.tca.2016.08.008).
# Numbers after ± are expanded uncertainties.
# Test: molar heat capacity at constant pressure
# Details: 101.33 kPa, Metastable crystal, Vacuum adiabatic calorimetry
smiles,measurement,setting,value
O=P([O-])([O-])[O-].[Tb+3] [terbium orthophosphate],molar heat capacity at constant pressure,7 K,0.2233 ± 0.014 J/K/mol
same,molar heat capacity at constant pressure,8 K,0.3348 ± 0.019 J/K/mol
same,molar heat capacity at constant pressure,8.48 K,0.404 ± 0.027 J/K/mol
same,molar heat capacity at constant pressure,9 K,0.4742 ± 0.026 J/K/mol
same,molar heat capacity at constant pressure,9.05 K,0.511 ± 0.033 J/K/mol
same,molar heat capacity at constant pressure,9.71 K,0.655 ± 0.042 J/K/mol
same,molar heat capacity at constant pressure,10 K,0.6496 ± 0.035 J/K/mol
same,molar heat capacity at constant pressure,10.37 K,0.779 ± 0.049 J/K/mol
same,molar heat capacity at constant pressure,11.05 K,0.934 ± 0.058 J/K/mol
same,molar heat capacity at constant pressure,11.74 K,1.116 ± 0.069 J/K/mol
same,molar heat capacity at constant pressure,12 K,1.115 ± 0.057 J/K/mol
same,molar heat capacity at constant pressure,12.45 K,1.328 ± 0.082 J/K/mol
same,molar heat capacity at constant pressure,13.16 K,1.551 ± 0.095 J/K/mol
same,molar heat capacity at constant pressure,13.89 K,1.784 ± 0.11 J/K/mol
same,molar heat capacity at constant pressure,14 K,1.738 ± 0.089 J/K/mol
same,molar heat capacity at constant pressure,14.62 K,2.037 ± 0.12 J/K/mol
same,molar heat capacity at constant pressure,15.36 K,2.349 ± 0.14 J/K/mol
same,molar heat capacity at constant pressure,16 K,2.51 ± 0.13 J/K/mol
same,molar heat capacity at constant pressure,16.12 K,2.666 ± 0.16 J/K/mol
same,molar heat capacity at constant pressure,16.88 K,2.985 ± 0.18 J/K/mol
same,molar heat capacity at constant pressure,17.64 K,3.316 ± 0.2 J/K/mol
same,molar heat capacity at constant pressure,18 K,3.404 ± 0.17 J/K/mol
same,molar heat capacity at constant pressure,18.41 K,3.69 ± 0.22 J/K/mol
same,molar heat capacity at constant pressure,19.18 K,4.058 ± 0.24 J/K/mol
same,molar heat capacity at constant pressure,19.96 K,4.44 ± 0.27 J/K/mol
same,molar heat capacity at constant pressure,20 K,4.388 ± 0.22 J/K/mol
same,molar heat capacity at constant pressure,21.2 K,5.035 ± 0.11 J/K/mol
same,molar heat capacity at constant pressure,22.67 K,5.753 ± 0.12 J/K/mol
same,molar heat capacity at constant pressure,24.17 K,6.522 ± 0.14 J/K/mol
same,molar heat capacity at constant pressure,25 K,7.043 ± 0.14 J/K/mol
same,molar heat capacity at constant pressure,25.69 K,7.302 ± 0.15 J/K/mol
same,molar heat capacity at constant pressure,27.22 K,8.099 ± 0.17 J/K/mol
same,molar heat capacity at constant pressure,28.76 K,8.951 ± 0.18 J/K/mol
same,molar heat capacity at constant pressure,30 K,9.779 ± 0.2 J/K/mol
same,molar heat capacity at constant pressure,30.31 K,9.817 ± 0.2 J/K/mol
same,molar heat capacity at constant pressure,31.87 K,10.74 ± 0.22 J/K/mol
same,molar heat capacity at constant pressure,33.44 K,11.64 ± 0.24 J/K/mol
same,molar heat capacity at constant pressure,35 K,12.55 ± 0.26 J/K/mol
same,molar heat capacity at constant pressure,35.02 K,12.43 ± 0.25 J/K/mol
same,molar heat capacity at constant pressure,36.6 K,13.44 ± 0.27 J/K/mol
same,molar heat capacity at constant pressure,38.18 K,14.4 ± 0.29 J/K/mol
same,molar heat capacity at constant pressure,39.77 K,15.33 ± 0.31 J/K/mol
same,molar heat capacity at constant pressure,40 K,15.41 ± 0.31 J/K/mol
same,molar heat capacity at constant pressure,41.38 K,16.26 ± 0.2 J/K/mol
same,molar heat capacity at constant pressure,42.98 K,17.22 ± 0.21 J/K/mol
same,molar heat capacity at constant pressure,44.6 K,18.17 ± 0.23 J/K/mol
same,molar heat capacity at constant pressure,45 K,18.37 ± 0.19 J/K/mol
same,molar heat capacity at constant pressure,46.24 K,19.19 ± 0.24 J/K/mol
same,molar heat capacity at constant pressure,47.86 K,20.2 ± 0.25 J/K/mol
same,molar heat capacity at constant pressure,49.48 K,21.22 ± 0.26 J/K/mol
same,molar heat capacity at constant pressure,50 K,21.44 ± 0.22 J/K/mol
same,molar heat capacity at constant pressure,51.11 K,22.24 ± 0.27 J/K/mol
same,molar heat capacity at constant pressure,52.74 K,23.26 ± 0.29 J/K/mol
same,molar heat capacity at constant pressure,54.37 K,24.23 ± 0.3 J/K/mol
same,molar heat capacity at constant pressure,55 K,24.56 ± 0.25 J/K/mol
same,molar heat capacity at constant pressure,56 K,25.23 ± 0.31 J/K/mol
same,molar heat capacity at constant pressure,57.64 K,26.25 ± 0.32 J/K/mol
same,molar heat capacity at constant pressure,59.28 K,27.25 ± 0.33 J/K/mol
same,molar heat capacity at constant pressure,60 K,27.69 ± 0.29 J/K/mol
same,molar heat capacity at constant pressure,60.93 K,28.25 ± 0.35 J/K/mol
same,molar heat capacity at constant pressure,62.57 K,29.31 ± 0.36 J/K/mol
same,molar heat capacity at constant pressure,64.22 K,30.35 ± 0.37 J/K/mol
same,molar heat capacity at constant pressure,65.88 K,31.35 ± 0.38 J/K/mol
same,molar heat capacity at constant pressure,67.53 K,32.33 ± 0.4 J/K/mol
same,molar heat capacity at constant pressure,69.19 K,33.27 ± 0.41 J/K/mol
same,molar heat capacity at constant pressure,70 K,33.8 ± 0.35 J/K/mol
same,molar heat capacity at constant pressure,71.05 K,34.29 ± 0.42 J/K/mol
same,molar heat capacity at constant pressure,73.13 K,35.52 ± 0.43 J/K/mol
same,molar heat capacity at constant pressure,75.2 K,36.74 ± 0.45 J/K/mol
same,molar heat capacity at constant pressure,77.26 K,38.04 ± 0.46 J/K/mol
same,molar heat capacity at constant pressure,79.33 K,39.29 ± 0.48 J/K/mol
same,molar heat capacity at constant pressure,80 K,39.56 ± 0.4 J/K/mol
same,molar heat capacity at constant pressure,81.4 K,40.39 ± 0.49 J/K/mol
same,molar heat capacity at constant pressure,83.47 K,41.31 ± 0.5 J/K/mol
same,molar heat capacity at constant pressure,83.73 K,41.32 ± 0.5 J/K/mol
same,molar heat capacity at constant pressure,85.54 K,42.27 ± 0.52 J/K/mol
same,molar heat capacity at constant pressure,85.78 K,42.39 ± 0.52 J/K/mol
same,molar heat capacity at constant pressure,87.61 K,43.75 ± 0.53 J/K/mol
same,molar heat capacity at constant pressure,87.83 K,43.95 ± 0.54 J/K/mol
same,molar heat capacity at constant pressure,89.69 K,44.86 ± 0.55 J/K/mol
same,molar heat capacity at constant pressure,89.89 K,45.03 ± 0.55 J/K/mol
same,molar heat capacity at constant pressure,90 K,44.91 ± 0.48 J/K/mol
same,molar heat capacity at constant pressure,91.76 K,45.8 ± 0.58 J/K/mol
same,molar heat capacity at constant pressure,91.94 K,46.03 ± 0.58 J/K/mol
same,molar heat capacity at constant pressure,93.84 K,46.75 ± 0.59 J/K/mol
same,molar heat capacity at constant pressure,94 K,47.04 ± 0.59 J/K/mol
same,molar heat capacity at constant pressure,95.93 K,47.75 ± 0.6 J/K/mol
same,molar heat capacity at constant pressure,96.06 K,48.09 ± 0.6 J/K/mol
same,molar heat capacity at constant pressure,98.01 K,48.74 ± 0.61 J/K/mol
same,molar heat capacity at constant pressure,98.12 K,49.05 ± 0.61 J/K/mol
same,molar heat capacity at constant pressure,100 K,49.89 ± 0.53 J/K/mol
same,molar heat capacity at constant pressure,100.09 K,49.85 ± 0.62 J/K/mol
same,molar heat capacity at constant pressure,100.18 K,50.06 ± 0.63 J/K/mol
same,molar heat capacity at constant pressure,102.79 K,51.27 ± 0.64 J/K/mol
same,molar heat capacity at constant pressure,102.86 K,51.16 ± 0.64 J/K/mol
same,molar heat capacity at constant pressure,106.14 K,52.71 ± 0.66 J/K/mol
same,molar heat capacity at constant pressure,109.43 K,54.24 ± 0.68 J/K/mol
same,molar heat capacity at constant pressure,110 K,54.53 ± 0.57 J/K/mol
same,molar heat capacity at constant pressure,112.71 K,55.74 ± 0.69 J/K/mol
same,molar heat capacity at constant pressure,116.01 K,57.18 ± 0.71 J/K/mol
same,molar heat capacity at constant pressure,119.3 K,58.57 ± 0.73 J/K/mol
same,molar heat capacity at constant pressure,120 K,58.89 ± 0.62 J/K/mol
same,molar heat capacity at constant pressure,122.6 K,59.95 ± 0.74 J/K/mol
same,molar heat capacity at constant pressure,125.9 K,61.32 ± 0.76 J/K/mol
same,molar heat capacity at constant pressure,129.2 K,62.65 ± 0.77 J/K/mol
same,molar heat capacity at constant pressure,130 K,63 ± 0.66 J/K/mol
same,molar heat capacity at constant pressure,132.49 K,63.94 ± 0.79 J/K/mol
same,molar heat capacity at constant pressure,135.79 K,65.24 ± 0.81 J/K/mol
same,molar heat capacity at constant pressure,139.09 K,66.54 ± 0.82 J/K/mol
same,molar heat capacity at constant pressure,140 K,66.91 ± 0.7 J/K/mol
same,molar heat capacity at constant pressure,142.39 K,67.77 ± 0.84 J/K/mol
same,molar heat capacity at constant pressure,145.69 K,69.04 ± 0.85 J/K/mol
same,molar heat capacity at constant pressure,148.98 K,70.3 ± 0.87 J/K/mol
same,molar heat capacity at constant pressure,150 K,70.62 ± 0.73 J/K/mol
same,molar heat capacity at constant pressure,152.28 K,71.55 ± 0.88 J/K/mol
same,molar heat capacity at constant pressure,155.57 K,72.72 ± 0.89 J/K/mol
same,molar heat capacity at constant pressure,158.87 K,73.84 ± 0.91 J/K/mol
same,molar heat capacity at constant pressure,160 K,74.17 ± 0.77 J/K/mol
same,molar heat capacity at constant pressure,162.16 K,74.93 ± 0.92 J/K/mol
same,molar heat capacity at constant pressure,165.45 K,76.02 ± 0.93 J/K/mol
same,molar heat capacity at constant pressure,168.73 K,77.12 ± 0.95 J/K/mol
same,molar heat capacity at constant pressure,170 K,77.56 ± 0.8 J/K/mol
same,molar heat capacity at constant pressure,172.02 K,78.29 ± 0.96 J/K/mol
same,molar heat capacity at constant pressure,175.28 K,79.23 ± 0.97 J/K/mol
same,molar heat capacity at constant pressure,178.56 K,80.19 ± 0.98 J/K/mol
same,molar heat capacity at constant pressure,180 K,80.8 ± 0.83 J/K/mol
same,molar heat capacity at constant pressure,181.84 K,81.29 ± 1 J/K/mol
same,molar heat capacity at constant pressure,185.11 K,82.39 ± 1 J/K/mol
same,molar heat capacity at constant pressure,188.38 K,83.45 ± 1 J/K/mol
same,molar heat capacity at constant pressure,190 K,83.89 ± 0.86 J/K/mol
same,molar heat capacity at constant pressure,191.65 K,84.37 ± 1 J/K/mol
same,molar heat capacity at constant pressure,194.92 K,85.28 ± 1 J/K/mol
same,molar heat capacity at constant pressure,198.18 K,86.29 ± 1.1 J/K/mol
same,molar heat capacity at constant pressure,200 K,86.85 ± 0.89 J/K/mol
same,molar heat capacity at constant pressure,201.43 K,87.36 ± 1.1 J/K/mol
same,molar heat capacity at constant pressure,205.1 K,88.44 ± 1.1 J/K/mol
same,molar heat capacity at constant pressure,209.15 K,89.46 ± 1.1 J/K/mol
same,molar heat capacity at constant pressure,210 K,89.66 ± 0.92 J/K/mol
same,molar heat capacity at constant pressure,213.21 K,90.54 ± 1.1 J/K/mol
same,molar heat capacity at constant pressure,217.26 K,91.68 ± 1.1 J/K/mol
same,molar heat capacity at constant pressure,220 K,92.36 ± 0.95 J/K/mol
same,molar heat capacity at constant pressure,221.31 K,92.89 ± 1.1 J/K/mol
same,molar heat capacity at constant pressure,225.34 K,93.96 ± 1.1 J/K/mol
same,molar heat capacity at constant pressure,229.34 K,95.06 ± 1.2 J/K/mol
same,molar heat capacity at constant pressure,230 K,94.92 ± 0.97 J/K/mol
same,molar heat capacity at constant pressure,233.27 K,95.82 ± 1.2 J/K/mol
same,molar heat capacity at constant pressure,237.28 K,96.8 ± 1.2 J/K/mol
same,molar heat capacity at constant pressure,240 K,97.37 ± 1 J/K/mol
same,molar heat capacity at constant pressure,241.28 K,97.76 ± 1.2 J/K/mol
same,molar heat capacity at constant pressure,245.26 K,98.58 ± 1.2 J/K/mol
same,molar heat capacity at constant pressure,249.23 K,99.5 ± 1.2 J/K/mol
same,molar heat capacity at constant pressure,250 K,99.7 ± 1 J/K/mol
same,molar heat capacity at constant pressure,253.16 K,100.4 ± 1.2 J/K/mol
same,molar heat capacity at constant pressure,257.1 K,101.2 ± 1.2 J/K/mol
same,molar heat capacity at constant pressure,260 K,101.9 ± 1 J/K/mol
same,molar heat capacity at constant pressure,260.99 K,102.1 ± 1.2 J/K/mol
same,molar heat capacity at constant pressure,264.86 K,102.9 ± 1.3 J/K/mol
same,molar heat capacity at constant pressure,268.76 K,103.8 ± 1.3 J/K/mol
same,molar heat capacity at constant pressure,270 K,104 ± 1.1 J/K/mol
same,molar heat capacity at constant pressure,272.6 K,104.6 ± 1.3 J/K/mol
same,molar heat capacity at constant pressure,276.41 K,105.3 ± 1.3 J/K/mol
same,molar heat capacity at constant pressure,280 K,106 ± 1.1 J/K/mol
same,molar heat capacity at constant pressure,280.2 K,105.9 ± 1.3 J/K/mol
same,molar heat capacity at constant pressure,283.96 K,106.6 ± 1.3 J/K/mol
same,molar heat capacity at constant pressure,287.7 K,107.3 ± 1.3 J/K/mol
same,molar heat capacity at constant pressure,290 K,107.9 ± 1.1 J/K/mol
